Experiments:
[1] = target: T1, human DLK (Homo sapiens (Human), UniProt Q12852); test: biochemical; assay type: binding; settings: Table 2b DLK activity (global); read-out: Kd
Protocol: The DLK dissociation constants (Kd) have been determined in the KINOMEscan KdELECT Service at DiscoveRx.
A fusion protein of full length of human DLK (amino acids 1-859) and the DNA binding domain of NFkB was expressed in transiently transfected HEK293 cells. From these HEK 293 cells, extracts were prepared in M-PER extraction buffer (Pierce) in the presence of Protease Inhibitor Cocktail Complete (Roche) and Phosphatase Inhibitor Cocktail Set II (Merck) per manufacturers' instructions. The DLK fusion protein was labeled with a chimeric double-stranded DNA tag containing the NFkB binding site (5′-[sequence]-3′) fused to an amplicon for qPCR readout, which was added directly to the expression extract (the final concentration of DNA-tag in the binding reaction is 0.1 nM).
The liganded beads were blocked with excess biotin and washed with blocking buffer (SeaBlock (Pierce), 1% BSA, 0.05% Tween 20, 1 mM DTT) to remove unbound ligand and to reduce nonspecific binding.
Extracts were used directly in binding assays without any enzyme purification steps at a ≥10,000-fold overall stock dilution (final DNA-tagged enzyme concentration <0.1 nM). Extracts were loaded with DNA-tag and diluted into the binding reaction in a two step process. First extracts were diluted 1:100 in 1× binding buffer (PBS/0.05% Tween 20/10 mM DTT/0.1% BSA/2 μg/ml sonicated salmon sperm DNA) containing 10 nM DNA-tag. This dilution was allowed to equilibrate at room temperature for 15 minutes and then subsequently diluted 1:100 in 1× binding buffer. Test compounds were prepared as 111× stocks in 100% DMSO. Kds were determined using an 11-point 3-fold compound dilution series with three DMSO control points. […] The compounds were then diluted directly into the assays such that the final concentration of DMSO was 0.9%. All reactions performed in polypropylene 384-well plates. Each was a final volume of 0.02 mL. Assays were incubated with shaking for 1 hour at room temperature. Then the beads were pelleted and washed with wash buffer (1×PBS, 0.05% Tween 20) to remove displaced kinase and test compound. […] The kinase concentration in the eluates was measured by qPCR. qPCR reactions were assembled by adding 2.5 μL of kinase eluate to 7.5 μL of qPCR master mix containing 0.15 μM amplicon primers and 0.15 μM amplicon probe. The qPCR protocol consisted of a 10 minute hot start at 95° C., followed by 35 cycles of 95° C. for 15 seconds, 60° C. for 1 minute.
Test compounds were prepared as 11× stocks in 100% DMSO. Kds were determined using an 11-point 3-fold compound dilution series with three DMSO control points. […] The compounds were then diluted directly into the assays such that the final concentration of DMSO was 0.9%. The Kds were determined using a compound top concentration of 30,000 nM. Kd measurements were performed in duplicate.
Binding constants (Kds) were calculated with a standard dose-response curve using the Hill equation:
The Hill Slope was set to −1.

[2] = target: T1, human DLK; test: cell-based; settings: Table 2b (global); additional assay runs on multiple batches, includes Table 2a data in the averaging; p-cJun (Ser63), HEK293; read-out: Cell IC50
Protocol: HEK293 cells stably transfected with a Dox-inducible human DLK were plated into a 384-well plate in 20 μl (40,000 cells/well) of DMEM medium (without phenol red) containing 10% fetal bovine serum, 1.5 μg/ml doxycycline and 1 μg/ml puromycin. The cells as negative control were grown in the absence of doxycycline. The plate was incubated at 37° C., 5% CO2 for 20 h, before DMSO (control) or compounds diluted in medium were added. The cells were incubated at 37° C. for an additional 5 h, followed by lysis and the addition detection antibodies from p-cJun (Ser63) cellular assay kit (Cisbio) per manufacturer protocol. The standard dose response curves were fitted by Genedata Screener software using the variable-slope model: Signal=Signalnegative control+(SignalDMSO control−Signalnegative control)/(1+(IC50/Dose)^Hill slope). Only signal and dose in the equation were treated as known values.

Row | SMILES | Kd [1] | IC50 [2]
1 | Nc1ncc(-c2cn(C34CC(N5CCOCC5)(C3)C4)c(C=O)n2)cc1OC(F)(F)F [Example 66, 4-(6-amino-5-(trifluoromethoxy)pyridin-3-yl)-1-(3-morpholinobicyclo[1.1.1]pentan-1-yl)-1H-imidazole-2-carbaldehyde] | 44 nM | 1400 nM
2 | COCCN(CCOC)C12CC(n3cc(-c4cnc(N)c(OC(F)(F)F)c4)nc3C3CC3)(C1)C2 [Example 25, 5-(1-(3-(bis(2-methoxyethyl)amino)bicyclo[1.1.1]pentan-1-yl)-2-cyclopropyl-1H-imidazol-4-yl)-3-(trifluoromethoxy)pyridin-2-amine] | 6.4 nM | 389 nM
3 | CC(C)C(O)c1nc(-c2cnc(N)c(OC(F)(F)F)c2)cn1C12CC(C1)C2 (centres unmarked) [Example 57, 1-(4-(6-amino-5-(trifluoromethoxy)pyridin-3-yl)-1-(bicyclo[1.1.1]pentan-1-yl)-1H-imidazol-2-yl)-2-methylpropan-1-ol] | 0.62 nM | 38.6 nM
4 | CC(C)c1nc(-c2cnc(N)c(OC(F)F)c2)cn1C12CC(N3CCOCC3)(C1)C2 [Example 38, 3-(difluoromethoxy)-5-(2-isopropyl-1-(3-morpholinobicyclo[1.1.1]pentan-1-yl)-1H-imidazol-4-yl)pyridin-2-amine] | 19 nM | 709 nM
5 | CC(C)c1nc(-c2cnc(N)c(C(F)(F)F)c2)cn1C12CC(C1)C2 [Example 52, 5-(1-(bicyclo[1.1.1]pentan-1-yl)-2-isopropyl-1H-imidazol-4-yl)-3-(trifluoromethyl)pyridin-2-amine] | 49 nM | 850 nM
6 | Nc1ncc(-c2cn(C34CC(N5CCOCC5)(C3)C4)c(C3CCOC3)n2)cc1OC(F)(F)F (centres unmarked) [Example 30, 5-(1-(3-morpholinobicyclo[1.1.1]pentan-1-yl)-2-(tetrahydrofuran-3-yl)-1H-imidazol-4-yl)-3-(trifluoromethoxy)pyridin-2-amine] | 390 nM | 5110 nM
7 | Nc1ncc(-c2cn(C34CC(N5CCN(CCF)CC5)(C3)C4)c(C3CC3)n2)cc1OC(F)(F)F [Example 17, 5-(2-cyclopropyl-1-(3-(4-(2-fluoroethyl)piperazin-1-yl)bicyclo[1.1.1]pentan-1-yl)-1H-imidazol-4-yl)-3-(trifluoromethoxy)pyridin-2-amine] | 6.9 nM | 281 nM
8 | FC(F)(F)c1c[nH]c2ncc(-c3cn(C45CC(N6CCOCC6)(C4)C5)c(C4CC4)n3)cc12 [Example 18, 4-(3-(2-cyclopropyl-4-(3-(trifluoromethyl)-1H-pyrrolo[2,3-b]pyridin-5-yl)-1H-imidazol-1-yl)bicyclo[1.1.1]pentan-1-yl)morpholine] | 1.9 nM | 155 nM
9 | Nc1ncc(-c2cn(C34CC(N5CCOCC5)(C3)C4)c(C3COC3)n2)cc1OC(F)(F)F [Example 31, 5-(1-(3-morpholinobicyclo[1.1.1]pentan-1-yl)-2-(oxetan-3-yl)-1H-imidazol-4-yl)-3-(trifluoromethoxy)pyridin-2-amine] | 170 nM | 2570 nM
10 | CC(C)c1nc(-c2cnc3ccn(C(C)c4ccccn4)c3c2)cn1C12CC(N3CCOCC3)(C1)C2 (centres unmarked) [Example 28, 4-(3-(2-isopropyl-4-(1-(1-(pyridin-2-yl)ethyl)-1H-pyrrolo[3,2-b]pyridin-6-yl)-1H-imidazol-1-yl)bicyclo[1.1.1]pentan-1-yl)morpholine] | 2.9 nM | 148 nM
11 | Nc1ncc(-c2cn(C34CC(N5CCOCC5)(C3)C4)c(CC(F)(F)F)n2)cc1OC(F)(F)F [Example 48, 5-(1-(3-morpholinobicyclo[1.1.1]pentan-1-yl)-2-(2,2,2-trifluoroethyl)-1H-imidazol-4-yl)-3-(trifluoromethoxy)pyridin-2-amine] | 13 nM | 413 nM
12 | CCC(C)c1nc(-c2cnc(N)c(OC(F)F)c2)cn1C12CC(N3CCOCC3)(C1)C2 (centres unmarked) [Example 51, 5-(2-(sec-butyl)-1-(3-morpholinobicyclo[1.1.1]pentan-1-yl)-1H-imidazol-4-yl)-3-(difluoromethoxy)pyridin-2-amine] | 21 nM | 763 nM
13 | Nc1ncc(-c2cn(C34CC(N5CCOCC5)(C3)C4)c(C3CCCO3)n2)cc1OC(F)(F)F (centres unmarked) [Example 32, 5-(1-(3-morpholinobicyclo[1.1.1]pentan-1-yl)-2-(tetrahydrofuran-2-yl)-1H-imidazol-4-yl)-3-(trifluoromethoxy)pyridin-2-amine] | 6.7 nM | 518 nM
14 | CC(C)(C)Cc1nc(-c2cnc(N)c(OC(F)(F)F)c2)cn1C12CC(N3CCOCC3)(C1)C2 [Example 39, 5-(1-(3-morpholinobicyclo[1.1.1]pentan-1-yl)-2-neopentyl-1H-imidazol-4-yl)-3-(trifluoromethoxy)pyridin-2-amine] | 210 nM | 4040 nM
15 | CCCN1CCN(C23CC(n4cc(-c5cnc(N)c(OC(F)(F)F)c5)nc4[C@@H](O)C(C)C)(C2)C3)CC1 [Example 10, (S)-1-(4-(6-amino-5-(trifluoromethoxy)pyridin-3-yl)-1-(3-(4-(propyl)piperazin-1-yl)bicyclo[1.1.1]pentan-1-yl)-1H-imidazol-2-yl)-2-methylpropan-1-ol] | 0.31 nM | 13.9 nM
16 | COCCN(C)C12CC(n3cc(-c4cnc(N)c(OC(F)(F)F)c4)nc3C3CC3)(C1)C2 [Example 24, 5-(2-cyclopropyl-1-(3-((2-methoxyethyl)(methyl)amino)bicyo[1.1.1]pentan-1-yl)-1H-imidazol-4-yl)-3-(trifluoromethoxy)pyridin-2-amine] | 6.8 nM | 553 nM
17 | CC(C)Cc1nc(-c2cnc(N)c(C(F)(F)F)c2)cn1C12CC(N3CCOCC3)(C1)C2 [Example 47, 5-(2-isobutyl-1-(3-morpholinobicyclo[1.1.1]pentan-1-yl)-1H-imidazol-4-yl)-3-(trifluoromethyl)pyridin-2-amine] | 6 nM | 655 nM
18 | Nc1ncc(-c2cn(C34CC(N5CCOCC5)(C3)C4)c(C3CCCC3)n2)cc1OC(F)(F)F [Example 44, 5-(2-cyclopentyl-1-(3-morpholinobicyclo[1.1.1]pentan-1-yl)-1H-imidazol-4-yl)-3-(trifluoromethoxy)pyridin-2-amine] | 53 nM | 841 nM
19 | Nc1ncc(-c2cn(C34CC(C3)C4)c(CO)n2)cc1C(F)(F)F [Example 58, (4-(6-amino-5-(trifluoromethyl)pyridin-3-yl)-1-(bicyclo[1.1.1]pentan-1-yl)-1H-imidazol-2-yl)methanol] | 18 nM | 846 nM
20 | Nc1ncc(-c2cn(C34CC(N5CCOCC5)(C3)C4)c([C@H](O)C(F)(F)F)n2)cc1OC(F)(F)F (single isomer, unassigned) [Example 8a] | 0.36 nM | 24.8 nM
21 | Nc1ncc(-c2cn(C34CC(N5CCC(O)CC5)(C3)C4)c(C3CC3)n2)cc1OC(F)(F)F [Example 26, 1-(3-(4-(6-amino-5-(trifluoromethoxy)pyridin-3-yl)-2-cyclopropyl-1H-imidazol-1-yl)bicyclo[1.1.1]pentan-1-yl)piperidin-4-ol] | 7 nM | 383 nM
22 | CCC(C)c1nc(-c2cnc(N)c(OC(F)(F)F)c2)cn1C12CC(N3CCOCC3)(C1)C2 (centres unmarked) [Example 49, 5-(2-(sec-butyl)-1-(3-morpholinobicyclo[1.1.1]pentan-1-yl)-1H-imidazol-4-yl)-3-(trifluoromethoxy)pyridin-2-amine] | 8.6 nM | 290 nM
23 | CC(C)C(O)c1nc(-c2cnc(N)c(C(F)(F)F)c2)cn1C12CC(C1)C2 (centres unmarked) [Example 59, 1-(4-(6-amino-5-(trifluoromethyl)pyridin-3-yl)-1-(bicyclo[1.1.1]pentan-1-yl)-1H-imidazol-2-yl)-2-methylpropan-1-ol] | 0.29 nM | 20.9 nM
24 | CN1CCN(C23CC(n4cc(-c5cnc(N)c(OC(F)(F)F)c5)nc4C4CC4)(C2)C3)CC1=O [Example 22, 4-(3-(4-(6-amino-5-(trifluoromethoxy)pyridin-3-yl)-2-cyclopropyl-1H-imidazol-1-yl)bicyclo[1.1.1]pentan-1-yl)-1-methylpiperazin-2-one] | 9.7 nM | 404 nM
25 | CCC(O)c1nc(-c2cnc(N)c(C(F)(F)F)c2)cn1C12CC(C1)C2 (centres unmarked) [Example 61, 1-(4-(6-amino-5-(trifluoromethyl)pyridin-3-yl)-1-(bicyclo[1.1.1]pentan-1-yl)-1H-imidazol-2-yl)propan-1-ol] | 2.1 nM | 167 nM
